This is an account of results in PMC4632323, “Development of a neuroprotective peptide that preserves survival pathways by preventing Kidins220/ARMS calpain processing induced by excitotoxicity” (Cell Death & Disease, 2015).

Where a SMILES comes first, the peptide text is derived from it. Where no end group is shown, it is not given here. The star is where a group is joined. Cbz = O=C(OCc1ccccc1)*

Assay [1] has as its system Kidins220. As to the kind of experiment: In vitro digestion of neuronal protein extracts with purified calpain I, immunoblot (Kid-Ct). The assay is classed as biochemical, rat. To be noted: calpain I 0-80 U/ml, 15 or 30 min, inhibitor 20 μM. A general note: A western blot detects proteins with antibodies after separation by electrophoresis.
Procedure: (c) Protein extracts from cortical neurons subjected to in vitro digestion with purified calpain I (0, 20, 50 or 80 U/ml) for 15 or 30 min in the absence or presence of calpain inhibitor CiIII (20 μM).
Protein extracts from cortical neurons were subjected to in vitro digestion with purified calpain I (20 U/ml) for 15 min in the presence of peptides Tat-K (K) or Tat-S (S) (0.5 μM). Results were analyzed by immunoblot with Kidins220 (Kid-Ct), spectrin and NSE antibodies.
In assay [2] the test system is Kidins220. Nature of the assay: Kidins220 calpain processing induced by NMDAR overactivation in cortical neurons, immunoblot. The assay is classed as cell-based, rat. To be noted: inhibitor added 1 h before NMDA 100 μM + glycine 10 μM, 4 h; CiIII 20 μM, lactacystin 15 μM; Kid-Nt immunoblot. The protocol: Figure 1 Approximate mapping of Kidins220 processing sites recognized by calpain after induction of excitotoxicity. (a) Immunoblot analysis of primary neuronal cultures (DIV 14) treated with high concentrations of NMDA (100 μM) and glycine (10 μM), herein indicated as NMDA, for 0–6 h. Kidins220 antibodies recognizing a C-terminal peptide (amino acids 1746–1762; Kid-Ct) or the N-terminal region (amino acids 1–402; Kid-Nt), or that specific for the protein neuronal-specific enolase (NSE) were used. Bands corresponding to endogenous full-length (FL) Kidins220 or its different processing N-terminal fragments (Nt-0/Nt-9) are indicated. […]
(a) Cell-membrane peptide Tat-K contains from the N- to the C-terminus amino acids 47–57 of the HIV-1 Tat protein (italic) followed by two proline linker residues and rat Kidins220 amino acids 1668–1681 (bold), which include the major calpain cleavage site (arrow). […] Results were analyzed by immunoblot with Kidins220 (Kid-Ct), spectrin and NSE antibodies. […] Primary cultures of neurons (DIV 14) were incubated with 5, 10 or 25 μM of FITC-labeled control peptide (FITC-Tat-S) for 2, 4 or 6 h and pictures were taken in a conventional fluorescence microscope. […] Cortical neurons were pre-incubated for 1 h with 10 or 25 μM of Tat-K (K) or Tat-S (S) before NMDA addition for 4 h and analyzed by immunoblot with Kidins220 (Kid-Ct), spectrin and NSE antibodies. […]

For another assay, the system named is cortical neurons. As to the kind of experiment: Calcein-AM/propidium iodide staining of viable and dead neurons after excitotoxicity. To be noted: peptide 25 μM pre-incubated 1 h, NMDA 4 h; mean ± S.E.M., n=7. In kind it is cell-based, rat. The protocol:
Figure 5 Neuroprotective effect exerted by Tat-K transduction on excitotoxic neuronal death. (a) Effect of Tat-K on cell death induced by NMDAR overactivation. Primary cultures of cortical neurons (DIV 14) were pre-incubated for 1 h with Tat-S or Tat-K (25 μM) and treated with NMDA for 4 h or left untreated. Next, viable and dead cells were visualized by simultaneous fluorescence staining with calcein-AM (1 μM; green) and propidium iodide (PI; 0.5 mM; red), respectively, for 15 min at 37 °C in the dark. Representative images for each condition are shown. Scale bar, 25 μm. (b) Quantitation of Tat-K effect on the relative percentage of viable/dead neurons found in excitotoxic conditions. A minimum of five random fields containing at least 500 neurons each were counted per experimental condition. […] Statistical significance was determined by paired Student's t-test (**P<0.01). (c) Quantitation of the effect of Tat-K on neuronal viability after induction of excitotoxicity. […] Neuronal viability was established by MTT reduction assay after subtracting the contribution of the glial cells present in the mixed cultures to absorbance as indicated in the Methods section. […] Statistical significance was determined by paired Student's t-test (*P<0.05, **P<0.01) […]

With `CC(C)[C@H](NC(=O)OCc1ccccc1)C(=O)N[C@H](C=O)Cc1ccccc1` [CiIII, carbobenzoxy–valinyl–phenylalaninal] (Cbz-Val-Phe-aldehyde), in the assay on Kidins220 [1], the “Effect on calpain I cleavage of Kidins220 (decrease of FL-Kidins220 and accumulation of Ct-0)” value is listed as “inhibited”. Also, in the assay with Kidins220 [2], the “Effect on NMDA-induced Kidins220 processing (Nt-1/Nt-9 production)” value is listed as “strongly prevented NMDA-induced processing”.

As for YGRKKRRQRRRPPLNRTPSTVTLNNNT [Tat-K], the “Viable neurons (calcein-AM) relative to total number of neurons” value in the assay on cortical neurons was 40±7%.

Consider YGRKKRRQRRRPPNTTTLSNLPTNVRN [Tat-S], for which, in the assay with cortical neurons, the “Viable neurons (calcein-AM) relative to total number of neurons” value is on record as 23±7%.
